Assays:
CD44v6 [1] = target: T1, CD44v6 (Homo sapiens, UniProt P16070); experiment: Peptide blocking of EGF-induced Erk phosphorylation in MCF10A cells (Western blot); type: cell-based; settings: MCF10 cells, serum-starved; peptide 100 ng/ml; EGF 20 ng/ml
T1 construct: endogenous in cells; host or cells: MCF7; MCF10A
Procedure: 3×10^5 were seeded per well of a 6-well plate and serum-starved for 24 hours. Afterwards the medium inside of each well was reduced to 1 ml and the respective peptide (v6 (both peptides of SEQ ID No.: 2 and 6 were tested), or ctrl peptide) was added at a concentration of 100 ng/ml. The cells then were incubated together with the peptide at 37° C. for 5 mins. Ligand concentration for all peptide blocking experiments was 20 ng/ml.
To assay protein expression via Western blot cells were washed 1× with PBS and afterwards lysed in 2×Laemmli sample buffer (160 mM Tris-HCl pH 6.8, 4% SDS, 16% glycerol, 0.1M DTT, 0.01% bromphenol blue). The sample was sheared through a 26 gauge needle. In succession the lysates were boiled for 5 mins at 99° C. in order to denature the proteins in the sample and then spun down at 10 000 rmp for 1 min Eventually the samples were loaded onto an SDS-PAGE gel.
To test whether CD44v6 acts as a co-receptor in MCF7 or MCF10A cells, a peptide blocking experiment using peptides of SEQ ID NO: 6 was conducted. The cells were serum-starved for 24 h and then pre-incubated with a v6 peptide or an unspecific control peptide. Then, the cells were induced with EGF or HGF as a control. As a read-out for ErbB-activation, the phosphorylation of the Erk-kinase was used.

L3.6pl cells = experiment: Human orthotopic pancreatic cancer model, L3.6pl cells in nude mice, treatment from day 7; type: in vivo, mouse; settings: nude mice
Method in brief: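 L3.6pl pancreatic carcinoma cells (passage 24-26) were injected orthotopically into the pancreas of male nude mice. From day 7, groups of 15 received i.p. human v6 peptide or rat control peptide (20 μg, 14mer or 5mer), three times weekly for 21 days. Animals were killed two days after the last dose; tumors were analyzed by P-Met, Met, CD31 and caspase immunostaining.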

CD44v6 [2] = experiment: HGF-induced activation of Met and Erk in HT29 cells (Western blot); type: cell-based, human
Procedure: FIG. 28: A: Activation of Met and signal transduction induced by HGF depends on CD44v6 in L3.6pl cells. L3.6pl cells were treated with the human v6 peptide (human v6 14mer) or the rat v6 peptide as control prior to induction with 10 ng/ml HGF. Activation of Met and ERK was determined in western blot. The numbers refer to the fold induction. The experiment was repeated at least 5 times. B: Activation of c-Met and signal transduction induced by HGF depends on CD44v6 HeLa cells. Starved HeLa cells respectively HT29 cells were incubated with the v6 peptide (human v6 14mer) or a control peptide for 10 minutes at 37° C. and then induced with 25 ng/ml of HGF for the indicated time points. Cells were then either lysed and the lysates were subjected to Western Blot analysis for phospho-Met and Met. C: Activation of c-Met and signal transduction induced by HGF depends on CD44v6 in HT29 cells. HGF-induced c-Met and Erk phosphorylation in HT29 was determined as described above using phospho-specific antibodies. […]
The contribution of CD44v6 to Met signaling in the human epithelial pancreatic cancer cells L3.6pl (derived from Colo 357), the cervix carcinoma cells HeLa and the colon cancer cells HT29 were analysed using the CD44v6 peptide (v6 14mer; v6 5mer tested as well, data not shown).

[3] = orthotopic L3.6pl, 20 μg i.p. three times per week

T1 sequence (P16070 21-742): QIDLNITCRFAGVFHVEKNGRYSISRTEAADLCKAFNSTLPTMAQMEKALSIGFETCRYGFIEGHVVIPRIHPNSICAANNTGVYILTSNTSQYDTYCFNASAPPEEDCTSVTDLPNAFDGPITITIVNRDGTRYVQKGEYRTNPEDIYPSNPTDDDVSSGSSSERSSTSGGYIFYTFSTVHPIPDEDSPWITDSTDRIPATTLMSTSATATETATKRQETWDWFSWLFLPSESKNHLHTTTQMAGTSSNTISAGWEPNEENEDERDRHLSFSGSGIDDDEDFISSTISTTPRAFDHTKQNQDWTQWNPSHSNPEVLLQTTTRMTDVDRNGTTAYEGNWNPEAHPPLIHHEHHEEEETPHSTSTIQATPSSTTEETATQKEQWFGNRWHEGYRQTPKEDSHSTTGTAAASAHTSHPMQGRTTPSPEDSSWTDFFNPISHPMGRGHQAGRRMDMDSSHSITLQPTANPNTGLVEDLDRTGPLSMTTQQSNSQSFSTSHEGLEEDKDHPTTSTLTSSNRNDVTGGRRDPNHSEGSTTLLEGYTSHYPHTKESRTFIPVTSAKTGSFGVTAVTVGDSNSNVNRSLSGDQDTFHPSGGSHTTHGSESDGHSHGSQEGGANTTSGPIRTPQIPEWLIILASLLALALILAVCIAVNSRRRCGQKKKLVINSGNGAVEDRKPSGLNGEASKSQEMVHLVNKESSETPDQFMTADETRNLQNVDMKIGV

In the case of “KEQWFGNRWHEGYR [SEQ ID NO: 6, human CD44v6 14mer peptide]”, the “EGF-induced activation of the ErbB receptors (Erk phosphorylation)” value (CD44v6 [1]) is reported as “could be blocked”, the “Tumor angiogenesis (CD31 staining, vessel number and vessel size)” value (L3.6pl cells; orthotopic L3.6pl tumors) is reported as “decreased angiogenesis as exemplified by a reduced vessel number and vessel size” and the “Metastasis formation (liver)” value (L3.6pl cells; [3]) is reported as “completely inhibited metastasis formation within the liver”. The “Outgrowth of the primary tumor in the pancreas” value (L3.6pl cells; [3]) was “strongly repressed”, the “Met activation in the tumor (phospho-Met immunofluorescence)” value (L3.6pl cells; orthotopic L3.6pl, 20 μg i.p. three times per week for three weeks) was “completely repressed Met activation” and the “HGF-induced activation of Met” value (CD44v6 [2]; HT29, starved, peptide 10 min 37° C., HGF 25 ng/ml) was “able to prevent activation”. For the same sequence, the “HGF-induced activation of downstream target Erk” value (CD44v6 [2]; HT29, peptide before induction with HGF) was “able to prevent activation”.

From patent US9586994B2, “CD44V6-derived peptides for treating breast cancer” (KARLSRUHER INSTITUT FÜR TECHNOLOGIE, priority 2012, dated 2017)
